Reference: patent US6849435B2, “Use of VLCFAE for identifying herbicidally active compounds” (Bayer Aktiengesellschaft, priority 2000, dated 2005)
“Also recorded” adds a separate entry of the source.

Key:
[1] = tested on: C18:1 fatty acid elongation; conditions: cited from earlier work
Arabidopsis thaliana = test: Herbicide treatment of Arabidopsis thaliana with flufenacet: generation of the fiddlehead phenotype; type: in vivo, Arabidopsis thaliana (ecotype Columbia Col-0)
Experimental: Herbicide Treatment of Arabidopsis thaliana With Flufenacet: Generation of the Fiddlehead Phenotype Arabidopsis seeds (ecotype Columbia Col-0), which were stored at 4° C., were sown in soil and cultivated at 22° C.±2° C. under long-day conditions (16 h light/8h dark). Plants 2 weeks old were sprayed with 250 g/ha and 50 g/ha flufenacet and cultivated further at 22° C.±2° C. under long-day conditions (16 h light/8h dark). […] These fusions are very similar to those in the “fiddlehead” mutants.

Compound	inhibition of C18:1 fatty acid elongation [1]	appearance of flowers after recovery (Arabidopsis thaliana; from day 18 after treatment with 250 g/ha and 50 g/ha)	fusion of the rosette leaves (Arabidopsis thaliana; in vivo)	fiddlehead phenotype (fusion of flower organs) (Arabidopsis thaliana; plants 2 weeks old sprayed with 250 g/ha and 50 g/ha, between day 7 and day 11 after treatment)
CN(C)c1cnn(-c2ccccc2)c(=O)c1Cl [BAS 13-338]	inhibit C18:1 fatty acid elongation			
CC(C)N(C(=O)COc1nnc(C(F)(F)F)s1)c1ccc(F)cc1 [flufenacet]		all the flowers appear normal again	leads to fusion of the rosette leaves	fiddlehead phenotype can be induced; also recorded: the flower organs fuse with the uppermost cauline leaves
